“And” between values parts separate entries of the source, which are not always exact repeats. Equal values may be shown once. Where a name gives a salt, the structure may show the parent alone.
Tested on: 5-HT release in the rat prefrontal cortex
Test: Microdialysis: 5-HT release in prefrontal cortex after I.P. administration
Type: in vivo
Conditions: for 5-HT release, individual animals / 5-HT release, MEAN: 0.3 mg/kg I.P.; for 5-HT release, individual animals: one column per animal R#11,12,18,23,29,30,17,24, hydrochloride; for 5-HT release, MEAN / 5-HT release (% of basal levels) measured in dialysates, MEAN: n = 8; for serotonin levels, increase (not statistically significant): SON-117 0.1 mg/kg IP; for 5-HT release (% of basal levels) measured in dialysates, MEAN: SON-117 3 mg/kg IP
Description: The aim of the study was to evaluate, using microdialysis, the effects of an intraperitoneal (I.P.) administration in rats of three different doses of SON-117 on dopamine and its metabolites, serotonin and its metabolite (5-HIAA), and norepinephrine levels in prefrontal cortex.
Thirty-two adult male Wistar rats were used for the whole study (4 groups of eight animals planned for the study, Table 1).
Surgery was performed on rats weighing about 300 g at the beginning of the experiments. Rats were anaesthetized with Ketamine (50 mg/kg) & Xylazine (15 mg/kg) by intramuscular administration. The animals were placed in a stereotaxic apparatus in the flat-skull position at a constant setting of −3.3 mm between ear bars and the incisor bar. The animals were treated with a local anesthesic (xylocaine 1%, Astra Zeneca) and an analgesic (Temgesic, from Schering Plough, 0.05 mg/kg, s.c.). A rostrocaudal midline incision was made with a lancet to expose the dorsal skull surface. The “stereotaxic zero” was defined by the Bregma in accordance with Paxinos and Watson's atlas (1986). A hole was drilled in the skull with a drill and the meninges were pierced with a sterile needle to implant a CMA12 guide cannula which later received the dialysis probe.
Coordinates used for implanting guide cannula in prefrontal cortex from Bregma were anteroposterior 3.7 mm, mediolateral 0.8 mm, and dorsoventral −2 mm (top of the probe was at −5 mm). The guide cannula was fixed to the skull with two stainless steel screws (1.88 mm outside diameter) anchored. An application of dental cement was added. A plastic collar allowed each animal to be tethered to a Swivel assembly of the CMA 120 awake animal system. Following surgery, rats were kept in individual cages and allowed to recover for a minimum of 3-5 days before the experimentation. The rats were handled and put in plastic bowl for 10 min at least every day to habituate the animals to their new environment for the dialysis. An I.P. administration with saline was also performed every day.
Dialysis probes (CMA12/3 mm, membrane, 20 kD cut-off, Carnegie Medicine, Stockholm, Sweden), were carefully washed before inserting into the guide cannula. The wash was performed with the artificial cerebrospinal fluid (aCSF) medium (NaCl 147 mM, KCl 2.7 mM, CaCl2 1.2 mM, MgCl2 0.85 mM) at room temperature. The dialysis system was then equilibrated at 20° C. at a perfusion rate of 1 μl/min with a Carnegie pump (CMA100). All catheters (FEP tubing, internal volume of 1.2 μl/10 cm, and tubing adaptors) used for microdialysis were treated in the same conditions.
The probes duly prepared were inserted into the guide cannula and the CMA120 Swivel assembly secured to the animal using a plastic collar. Flow through the dialysis probe with aCSF was maintained at a rate of 1 μl/min during the whole experimentation. The first four fractions (corresponding to 2 hours) were discarded to avoid the effects of parenchymal disturbance and to ensure that an approximate steady-state level was reached. Fractions were then collected over a period of 8.5 h during which time the animals remained quiet. The dialysates were automatically collected with an autosampler (microfraction collector CMA 140, Carnegie Medicin) and stored at −80° C. until analysis. […] Perfusion was then maintained for 7 hours with aCSF. The dialysates (30 μl) were collected into 300 μl vials, transferred into dry ice and then kept frozen (−80° C.) until analysis. Frozen samples were shipped to a partner for analysis. At the end of the microdialysis study, a PBS with colored ink was perfused through the probe in order to visualize the dialyzed area.
Catecholamine assay: Concentrations of dopamine, DOPAC, HVA, 5-HIAA, 5-HT, and norepinephrin were determined for each sample by HPLC coupled with electrochemical detection. […]

Cc1nnc(-c2cc3c(OC[C@@H](O)CN4CCC(c5ccc(Cl)c(Cl)c5)CC4)cccc3o2)o1 [SON-117, (S)-1-(4-(3,4-dichlorophenyl)piperidino)-3-(2-(5-methyl-1,3,4-oxadiazol-2-yl)benzo(b)furan-4-yloxy)-2-propanol hydrochloride]
5-HT release, individual animals (T3 h 30-T4 h): 200.54 % of respective basal and 84.61 % of respective basal and 62.15 % of respective basal and 60.73 % of respective basal and 115.12 % of respective basal and 46.42 % of respective basal and 361.81 % of respective basal | 5-HT release, MEAN (T3 h-T3 h 30): 112.03 % of respective basal | 5-HT release, individual animals (T3 h-T3 h 30): 118.62 % of respective basal and 100.39 % of respective basal and 94.04 % of respective basal and 122.16 % of respective basal and 126.07 % of respective basal and 27.45 % of respective basal and 195.48 % of respective basal | 5-HT release, MEAN (T4 h 30-T5 h): 105.19 % of respective basal | 5-HT release, individual animals (T4 h 30-T5 h): 144.93 % of respective basal and 86.55 % of respective basal and 70.67 % of respective basal and 69.54 % of respective basal and 82.71 % of respective basal and 313.44 % of respective basal and 18.96 % of respective basal and 54.73 % of respective basal | 5-HT release, MEAN (T4 h-T4 h 30): 80.14 % of respective basal | 5-HT release, individual animals (T4 h-T4 h 30): 87.68 % of respective basal and 67.29 % of respective basal and 102.65 % of respective basal and 67.53 % of respective basal and 83.72 % of respective basal and 130.39 % of respective basal and 23.64 % of respective basal and 78.23 % of respective basal | 5-HT release, MEAN (T5 h 30-T6 h): 106.06 % of respective basal | 5-HT release, individual animals (T5 h 30-T6 h): 149.11 % of respective basal and 44.15 % of respective basal and 83.73 % of respective basal and 57.89 % of respective basal and 95.31 % of respective basal and 328.43 % of respective basal and 13.82 % of respective basal and 76.03 % of respective basal | 5-HT release, MEAN (T5 h-T5 h 30): 100.56 % of respective basal | 5-HT release, individual animals (T5 h-T5 h 30): 81.27 % of respective basal and 37.01 % of respective basal and 187.99 % of respective basal and 64.78 % of respective basal and 81.96 % of respective basal and 177.83 % of respective basal and 7.58 % of respective basal and 166.02 % of respective basal | 5-HT release, MEAN (T6 h 30-T7 h): 103.94 % of respective basal | 5-HT release, individual animals (T6 h 30-T7 h): 181.36 % of respective basal and 59.67 % of respective basal and 70.80 % of respective basal and 52.79 % of respective basal and 109.41 % of respective basal and 187.49 % of respective basal | 5-HT release, MEAN (T6 h-T6 h 30): 95.56 % of respective basal | 5-HT release, individual animals (T6 h-T6 h 30): 73.74 % of respective basal and 57.84 % of respective basal and 81.54 % of respective basal and 59.72 % of respective basal and 94.43 % of respective basal and 108.00 % of respective basal and 20.86 % of respective basal and 268.32 % of respective basal | 5-HT release, MEAN (T-30 min-T0 (before administration)): 94.43 % of respective basal | 5-HT release, MEAN (T-1 h 30-T-1 h (before administration)): 100.12 % of respective basal | 5-HT release, MEAN (T-1 h-T-30 min (before administration)): 104.14 % of respective basal | serotonin levels, increase (not statistically significant) (at 2.5 h): 368% | serotonin levels, increase (not statistically significant) (from 4.5 h to 7 h): 350% | 5-HT release, maximum increase observed (SON-117 0.1 mg/kg, at 2.5 h): 369% | levels of 5-HT compared to the citalopram treated group (significant) (SON-117 0.1 mg/kg, at 2.5 h, 4.5 and 5.5 h): higher | 5-HT dialysate levels vs mean pre-administration value (SON-117 0.3 mg/kg IP): no statistically significant differences | levels of 5-HT compared to the citalopram treated group (significant) (SON-117 0.3 mg/kg, at 1 h): slightly lower | 5-HT release (% of basal levels) measured in dialysates, MEAN (T0-T30 min): 100.79 % of basal levels | 5-HT release (% of basal levels) measured in dialysates, MEAN (T30-T1 h): 122.25 % of basal levels
